Assay results taken from patent US5814631A, “Quinazoline derivatives and applications thereof” (Suntory Limited, priority 1995, dated 1998).
Where two headings read alike, the source gives them in different places.

Experiments:
[1] = tested on: vascular restenosis after the operation of PTCA; details: random multifacility clinical study, Europe, placebo control; cited from earlier work
chymase = details: canine, simian, and human arterial tissue; cited from earlier work
[2] = biological target: T1, human neutrophil derived cathepsin G (Homo sapiens, UniProt P08311); assay: Measurement of cathepsin G inhibitive activity (conversion of Ang I to Ang II, HPLC); format: biochemical; details: Ang I substrate, 37° C., 30 min, pH 7.5
T1 sequence (P08311 21-244 limits assumed): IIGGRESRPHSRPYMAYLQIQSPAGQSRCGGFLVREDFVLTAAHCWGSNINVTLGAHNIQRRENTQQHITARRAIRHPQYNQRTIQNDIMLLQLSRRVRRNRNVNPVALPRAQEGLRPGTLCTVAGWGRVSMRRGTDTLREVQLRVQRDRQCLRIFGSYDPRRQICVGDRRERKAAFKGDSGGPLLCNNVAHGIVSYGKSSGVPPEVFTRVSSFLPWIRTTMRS

[3] = biological target: T2, bovine pancreatic α-chymotrypsin (Bos taurus, UniProt P00766); assay: Measurement of chymotrypsin inhibitive activity (Ang I, HPLC); format: biochemical; details: for IC50: bovine pancreatic α-chymotrypsin, Ang I substrate, 37° C., 15 min, pH 7.5; for inhibition at 100 µM: percent inhibition at 100 μM
T2 construct: purchased Sigma Co. Type II; host or cells: bovine pancreas

in vivo = details: mouse, po
human heart chymase [4] = biological target: T3, human heart chymase (Homo sapiens, UniProt P23946); assay: biochemical; details: Chymase inhibitive activity (IC50), Ang I substrate, 37° C., 30 min, pH 7.5
T3 sequence (P23946 22-247): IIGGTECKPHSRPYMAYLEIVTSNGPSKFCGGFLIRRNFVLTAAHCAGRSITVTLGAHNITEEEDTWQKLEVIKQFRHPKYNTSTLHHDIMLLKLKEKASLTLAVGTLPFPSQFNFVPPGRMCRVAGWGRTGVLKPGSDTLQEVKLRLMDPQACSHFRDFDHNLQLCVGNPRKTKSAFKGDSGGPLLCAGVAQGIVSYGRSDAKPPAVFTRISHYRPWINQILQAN
Procedure: (§1) That is, to 10 μl of a 20 mM trisphosphate buffer (pH 7.5) containing 2MKCl were added 10 μl of purified chymase and 5 μl of a dimethylsulfoxide (hereinafter referred to as DMSO) solution of the test sample. The mixture was preincubated at 37° C. for 10 minutes, then 25 μl of a 1 mM Ang I solution was added and the mixture preincubated at 37° C. for 30 minutes. Next, 50 μl of 30% acetic acid was added to stop the enzymatic reaction. At the same time, a blind test was performed by adding, instead of the test sample solution, 5 μl of DMSO and performing the same reaction.
(§2) The reacted solution was subjected to high performance liquid chromatography using Develosil ODS-5 (made by Nomura Kagaku, .phi.4.6 mm×150 mm) and developed at a flow rate of 2.0 ml/min in 0.05% TFA by a straight concentration gradient raising the acetonitrile from 0% to 60% over 10 minutes. This was monitored by the absorbance at 210 nm and the peaks identified by comparison with standard samples of Ang I and Ang II. The peak areas were measured by an integrating meter to quantitatively analyze the Ang I and Ang II and calculate the chymase activity.

human heart chymase [5] = biological target: T3, human heart chymase; details: read-out: Chymase inhibitive activity (IC50), Ang I substrate, 37° C., 30 min, pH 7.5
Procedure: as §1, §2

Row | Molecule | IC50 [2] [nM] | IC50 [3] [µM] | IC50 (human heart chymase [4]) [nM] | also measured
1 | CCOC(=O)[C@H](CCc1ccccc1)N[C@H]1CCCN2CCC[C@@H](C(=O)O)N2C1=O [cilazapril] |  |  |  | prophylactic effect on vascular restenosis after PTCA versus placebo [1]: no statistically significant difference
2 | CC(C)C[C@H](NC(=O)[C@@H](NC(=O)N[C@@H](Cc1ccccc1)C(=O)O)[C@@H]1CCN=C(N)N1)C(=O)N[C@H](C=O)Cc1ccccc1 [chymostatin] |  |  |  | inhibition of the enzymatic activity of chymase, in words (chymase): inhibited
3 | O=c1[nH]c2cc(Cl)ccc2c(=O)n1S(=O)(=O)c1ccc(Cl)cc1 [Example 1, 7-chloro-3-(-4-chlorobenzenesulfonyl)-2,4(1H,3H)-quinazolinedione] | 520 | 1.5 |  | LD50 at 24 h (in vivo): ≥ 1000 mg/kg
4 | O=C(O)Cn1c(=O)n(S(=O)(=O)c2ccc(Cl)cc2)c(=O)c2ccc(Cl)cc21 [Example 29, 1-carboxymethyl-7-chloro-3-(4-chlorobenzenesulfonyl)-2,4(1H,3H)-quinazolinedione] | 14000 |  | 3300 | inhibition at 100 µM [3]: 46.5%
5 | O=C(O)c1cccc(S(=O)(=O)n2c(=O)[nH]c3cc(Cl)ccc3c2=O)c1 [Example 15, 3-(3-carboxybenzenesulfonyl)-7-chloro-2,4(1H,3H)-quinazolinedione] | 790 | 4.8 | 2400 | 
6 | O=c1[nH]c2cc3ccccc3cc2c(=O)n1S(=O)(=O)c1ccc(Cl)cc1 [Example 35, 3-(4chlorobenzenesulfonyl)-2,4(1H,3H)-benzo[g]quinazolinedione] |  | 1.4 | 2400 | 
7 | C=CCOC(=O)c1ccc(S(=O)(=O)n2c(=O)[nH]c3cc(Cl)ccc3c2=O)cc1 [Example 5, 3-(4-allyloxycarbonylbenzenesulfonyl)-7-chloro-2,4(1H,3H)-quinazolinedione] | 340 | 2 |  | 
8 | Cc1ccc(S(=O)(=O)n2c(=O)[nH]c3cc(Cl)ccc3c2=O)cc1C [Example 9, 7-chloro-3-(3,4-dimethylbenzenesulfonyl)-2,4(1H,3H)-quinazolinedione] | 480 | 2.5 | 1600 | 
9 | O=c1[nH]c2cc(F)ccc2c(=O)n1S(=O)(=O)c1ccc(Cl)cc1 [Example 31, 3-(4-chlorobenzenesulfonyl)-7-fluoro-2,4(1H,3H)-quinazolinedione] | 1100 | 5.7 | 1700 | 
10 | O=c1[nH]c2ccccc2c(=O)n1S(=O)(=O)c1ccc(Cl)cc1 [Example 23, 3-(4-chlorobenzenesulfonyl)-2,4(1H,3H)-quinazolinedione] | 3800 | 12 | 1600 | 
11 | Cc1cccc2[nH]c(=O)n(S(=O)(=O)c3ccc(Cl)cc3)c(=O)c12 [Example 2, 3-(4-chlorobenzenesulfonyl)-5-methyl-2,4(1H,3H)-quinazolinedione] |  |  |  | LD50 at 24 h (in vivo): ≥ 1000 mg/kg; selectivity ratio at 24 h (in vivo): ≥ 50
12 | O=c1[nH]c2cc(Cl)ccc2c(=O)n1S(=O)(=O)c1ccccc1 [Example 11, 7-chloro-3-benzenesulfonyl-2,4 3(1H,3H)-quinazolinedione] | 250 | 3 | 730 | 
13 | Cc1ccc(S(=O)(=O)n2c(=O)[nH]c3cc(Cl)ccc3c2=O)cc1 [Example 37, 7-chloro-3-(4-toluenesulfonyl)-2,4(1H,3H)-quinazolinedione] | 1200 | 6.1 | 1300 | 
14 | O=c1[nH]c2cc(Cl)ccc2c(=O)n1S(=O)(=O)c1ccc([N+](=O)[O-])cc1 [Example 13, 7-chloro-3-(4-nitrobenzenesulfonyl)-2,4(1H,3H)-quinazolinedione] | 34 | 0.24 | 850 | 
15 | 3(4-chlorobenzenesulfonyl)-1-phenethyl-2,4(1H,3H)-quinazolinedione [Example 129] |  |  |  | IC50 (human heart chymase [5]): 3200 nM
16 | O=c1[nH]c2ccc(F)cc2c(=O)n1S(=O)(=O)c1ccc(Cl)cc1 [Example 33, 3-(4-chlorobenzenesulfonyl)-6-fluoro-2,4(1H,3H)-quinazolinedione] | 3600 | 4.6 | 1900 | 
17 | CC(C)(C)OC(=O)Cn1c(=O)n(S(=O)(=O)c2ccc(Cl)cc2)c(=O)c2ccc(Cl)cc21 [Example 25, 1-t-butoxycarbonylmethyl-7-chloro-3-(4-chlorobenzenesulfonyl)-2,4(1H,3H)-quinazolinedione] | 37000 |  | 6300 | inhibition at 100 µM [3]: 34.5%
18 | Cn1c(=O)n(S(=O)(=O)c2ccc(Cl)cc2)c(=O)c2ccc(Cl)cc21 [Example 27, 7-chloro-3-(4-chlorobenzenesulfonyl)-1-methyl-2,4(1H,3H)-quinazolinedione] | 16000 |  | 7000 | inhibition at 100 µM [3]: 27%
19 | COC(=O)c1ccc(S(=O)(=O)n2c(=O)[nH]c3cc(Cl)ccc3c2=O)cc1 [Example 19, 7-chloro-3-(4-methoxycarbonylbenzenesulfonyl)-2,4(1H,3H)-quinazolinedione] | 160 | 0.4 | 200 | 
20 | O=C(Cn1c(=O)n(S(=O)(=O)c2ccc(Cl)cc2)c(=O)c2ccc(Cl)cc21)Nc1cc[nH]c(=O)n1 [Example 88, [7-chloro-3-(4-chlorobenzenesulfonyl)-2,4(1H,3H)-quinazolinedion-1-yl]-N-cytosinacetamide] |  |  |  | IC50 (human heart chymase [5]): 200 nM
21 | Cc1cc2[nH]c(=O)n(S(=O)(=O)c3ccc(Cl)cc3)c(=O)c2cc1C [Example 21, 3-(4-chlorobenzenesulfonyl)-6,7-dimethyl-2,4(1H,3H)-quinazolinedione] | 37000 | 8.5 | 30000 | 
22 | Nc1ncc(NC(=O)Cn2c(=O)n(S(=O)(=O)c3ccc(Cl)cc3)c(=O)c3ccc(Cl)cc32)cn1 [Example 87, [7-chloro-3-(4-chlorobenzenesulfonyl)-2,4(1H,3H)-quinazolinedion-1-yl]-N-(4-(2-aminopyrimidinyl))acetamide] |  |  |  | IC50 (human heart chymase [5]): 130 nM
23 | Cc1ccc2[nH]c(=O)n(S(=O)(=O)c3ccc(Cl)cc3)c(=O)c2c1 [Example 3] | 64400 | 3.5 | 3900 | 
24 | O=C(O)c1ccc(S(=O)(=O)n2c(=O)[nH]c3cc(Cl)ccc3c2=O)cc1 | 580 | 25 | 3100 | 
25 | COc1cccc2c(=O)n(S(=O)(=O)c3ccc(Cl)cc3)c(=O)[nH]c12 [Example 7, 3-(4-chlorobenzenesulfonyl)-8-methoxy-2,4(1H,3H)-quinazolinedione] | 3200 | 1.9 | 23000 | 
26 | O=C(Cn1c(=O)n(S(=O)(=O)c2ccc(Cl)cc2)c(=O)c2ccc(Cl)cc21)c1ccccc1 [Example 108, 7-chloro-3-(4-chlorobenzenesulfonyl)-1-phenacyl-2,4(1H,3H)-quinazolinedione] |  |  | 1300 | 
27 | O=c1c2ccc(Cl)cc2n(COCc2ccccc2)c(=O)n1S(=O)(=O)c1ccc(Cl)cc1 [Example 109, 1-(benzyloxymethyl)-7-chloro-3-(4-chlorobenzenesulfonyl)-2,4(1H,3H)-quinazolinedione] |  |  | 240 | 
28 | Cn1ccc(S(=O)(=O)n2c(=O)c3ccc(Cl)cc3n(CC(=O)Nc3cccnc3)c2=O)c1 [Example 103, [7-chloro-3-(1-methylpyrrole-3-sulfonyl)-2,4(1H,3H)-quinazolinedion-1-yl]-N-(3-pyridyl)acetamide] |  |  | 4600 | 
